Assay results reported in ChEMBL document CHEMBL1143937, “1-deoxyrubralactone, a novel specific inhibitor of families X and Y of eukaryotic DNA polymerases from a fungal strain derived from sea algae” (Bioorg Med Chem, 2008).
Active and inactive are the calls of the source. The calls are words filed in the database; no cut-off is given here.

Key:
Bos taurus [1] = organism: Bos taurus; assay: Inhibition of calf terminal deoxynucleotidyl transferase at 100 uM
DNA polymerase beta = DNA polymerase beta (Rattus norvegicus, UniProt P06766); assay: Inhibition of rat DNA polymerase beta
Homo sapiens [2] = organism: Homo sapiens; assay: Inhibition of human DNA polymerase gamma at 100 uM
Escherichia coli = assay: Inhibition of Escherichia coli DNA polymerase 1 at 100 uM
[3] = biological target: T1, DNA polymerase iota (Homo sapiens) (UniProt Q9UNA4); assay: Inhibition of human DNA polymerase iota at 100 uM
T1 sequence (whole entry): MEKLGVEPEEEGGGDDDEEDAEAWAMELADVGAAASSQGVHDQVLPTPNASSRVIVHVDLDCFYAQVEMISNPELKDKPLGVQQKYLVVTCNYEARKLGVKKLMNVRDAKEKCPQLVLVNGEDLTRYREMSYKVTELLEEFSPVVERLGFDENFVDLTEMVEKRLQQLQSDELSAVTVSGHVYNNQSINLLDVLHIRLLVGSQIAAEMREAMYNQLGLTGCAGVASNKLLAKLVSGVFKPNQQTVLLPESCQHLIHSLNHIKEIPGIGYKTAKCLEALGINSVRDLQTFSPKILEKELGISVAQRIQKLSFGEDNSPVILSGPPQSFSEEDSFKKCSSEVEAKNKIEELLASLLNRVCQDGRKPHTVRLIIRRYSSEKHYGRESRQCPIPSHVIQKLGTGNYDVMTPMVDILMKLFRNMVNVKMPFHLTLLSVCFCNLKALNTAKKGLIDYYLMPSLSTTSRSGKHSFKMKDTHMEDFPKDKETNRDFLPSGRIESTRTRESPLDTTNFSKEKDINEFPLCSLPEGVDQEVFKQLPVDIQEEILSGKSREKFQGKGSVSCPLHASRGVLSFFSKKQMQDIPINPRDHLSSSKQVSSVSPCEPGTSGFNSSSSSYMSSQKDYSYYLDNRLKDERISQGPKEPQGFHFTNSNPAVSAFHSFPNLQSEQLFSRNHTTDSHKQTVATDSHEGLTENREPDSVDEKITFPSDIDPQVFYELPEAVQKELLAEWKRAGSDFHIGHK

[4] = biological target: T2, DNA polymerase lambda (Homo sapiens) (UniProt Q9UGP5); assay: Inhibition of human DNA polymerase lambda at 100 uM
T2 sequence (whole entry): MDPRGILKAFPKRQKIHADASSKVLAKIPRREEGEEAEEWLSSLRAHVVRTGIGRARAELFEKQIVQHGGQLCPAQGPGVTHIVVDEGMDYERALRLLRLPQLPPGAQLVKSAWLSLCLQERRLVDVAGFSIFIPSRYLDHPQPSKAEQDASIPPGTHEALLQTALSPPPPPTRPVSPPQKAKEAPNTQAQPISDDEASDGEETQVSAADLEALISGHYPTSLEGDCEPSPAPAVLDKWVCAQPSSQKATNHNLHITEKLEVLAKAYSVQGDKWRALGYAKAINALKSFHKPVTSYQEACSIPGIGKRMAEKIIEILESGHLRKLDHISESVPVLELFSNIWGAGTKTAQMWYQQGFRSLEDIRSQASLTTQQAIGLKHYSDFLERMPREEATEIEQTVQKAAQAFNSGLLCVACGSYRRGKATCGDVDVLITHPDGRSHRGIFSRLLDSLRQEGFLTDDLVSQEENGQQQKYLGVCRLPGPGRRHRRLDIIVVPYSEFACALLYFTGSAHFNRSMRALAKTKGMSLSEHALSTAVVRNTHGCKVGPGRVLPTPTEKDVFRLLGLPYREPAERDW

Bos taurus [5] = organism: Bos taurus; assay: Inhibition of calf DNA polymerase alpha at 100 uM
[6] = biological target: Inosine-5'-monophosphate dehydrogenase 2 (Mus musculus) (UniProt P24547); assay: Inhibition of mouse IMP dehydrogenase 2 at 100 uM
Tequatrovirus T4 = assay: Inhibition of T4 DNA polymerase at 100 uM
[7] = biological target: T3, DNA polymerase delta catalytic subunit (Homo sapiens) (UniProt P28340); assay: Inhibition of human DNA polymerase delta at 100 uM
T3 sequence (whole entry): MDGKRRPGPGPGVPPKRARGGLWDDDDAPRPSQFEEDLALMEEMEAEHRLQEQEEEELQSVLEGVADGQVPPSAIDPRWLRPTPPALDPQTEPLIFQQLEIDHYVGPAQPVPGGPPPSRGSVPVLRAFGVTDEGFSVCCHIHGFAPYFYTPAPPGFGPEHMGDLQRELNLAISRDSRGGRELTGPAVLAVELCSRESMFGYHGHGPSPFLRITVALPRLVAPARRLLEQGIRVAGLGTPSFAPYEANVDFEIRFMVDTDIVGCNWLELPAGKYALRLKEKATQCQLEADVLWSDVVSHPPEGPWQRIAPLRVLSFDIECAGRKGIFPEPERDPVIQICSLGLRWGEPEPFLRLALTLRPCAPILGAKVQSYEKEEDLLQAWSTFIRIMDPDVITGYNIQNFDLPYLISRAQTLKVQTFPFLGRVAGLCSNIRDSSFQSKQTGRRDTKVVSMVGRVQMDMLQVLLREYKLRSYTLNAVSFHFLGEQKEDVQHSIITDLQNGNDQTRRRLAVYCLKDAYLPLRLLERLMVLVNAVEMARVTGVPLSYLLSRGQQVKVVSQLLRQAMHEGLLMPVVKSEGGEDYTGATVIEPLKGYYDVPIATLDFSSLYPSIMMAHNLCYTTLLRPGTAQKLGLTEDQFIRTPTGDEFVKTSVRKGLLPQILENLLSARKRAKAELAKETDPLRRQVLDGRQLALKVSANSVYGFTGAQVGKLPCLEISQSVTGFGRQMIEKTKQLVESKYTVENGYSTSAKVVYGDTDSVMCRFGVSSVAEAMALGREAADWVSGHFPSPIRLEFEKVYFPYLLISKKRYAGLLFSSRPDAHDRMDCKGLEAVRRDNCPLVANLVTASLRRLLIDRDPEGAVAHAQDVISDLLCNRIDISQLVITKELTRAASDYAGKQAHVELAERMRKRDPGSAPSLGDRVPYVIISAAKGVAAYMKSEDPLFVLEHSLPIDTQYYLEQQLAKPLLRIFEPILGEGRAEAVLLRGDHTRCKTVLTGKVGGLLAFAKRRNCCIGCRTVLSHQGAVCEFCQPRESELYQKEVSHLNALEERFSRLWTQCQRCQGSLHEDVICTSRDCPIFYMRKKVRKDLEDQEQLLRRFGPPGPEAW

[8] = biological target: Telomerase reverse transcriptase (Homo sapiens) (UniProt O14746); assay: Inhibition of human telomerase at 100 uM
[9] = biological target: T4, DNA topoisomerase 1 (Homo sapiens) (UniProt P11387); assay: Inhibition of human DNA topoisomerase 1 at 100 uM
T4 sequence (whole entry): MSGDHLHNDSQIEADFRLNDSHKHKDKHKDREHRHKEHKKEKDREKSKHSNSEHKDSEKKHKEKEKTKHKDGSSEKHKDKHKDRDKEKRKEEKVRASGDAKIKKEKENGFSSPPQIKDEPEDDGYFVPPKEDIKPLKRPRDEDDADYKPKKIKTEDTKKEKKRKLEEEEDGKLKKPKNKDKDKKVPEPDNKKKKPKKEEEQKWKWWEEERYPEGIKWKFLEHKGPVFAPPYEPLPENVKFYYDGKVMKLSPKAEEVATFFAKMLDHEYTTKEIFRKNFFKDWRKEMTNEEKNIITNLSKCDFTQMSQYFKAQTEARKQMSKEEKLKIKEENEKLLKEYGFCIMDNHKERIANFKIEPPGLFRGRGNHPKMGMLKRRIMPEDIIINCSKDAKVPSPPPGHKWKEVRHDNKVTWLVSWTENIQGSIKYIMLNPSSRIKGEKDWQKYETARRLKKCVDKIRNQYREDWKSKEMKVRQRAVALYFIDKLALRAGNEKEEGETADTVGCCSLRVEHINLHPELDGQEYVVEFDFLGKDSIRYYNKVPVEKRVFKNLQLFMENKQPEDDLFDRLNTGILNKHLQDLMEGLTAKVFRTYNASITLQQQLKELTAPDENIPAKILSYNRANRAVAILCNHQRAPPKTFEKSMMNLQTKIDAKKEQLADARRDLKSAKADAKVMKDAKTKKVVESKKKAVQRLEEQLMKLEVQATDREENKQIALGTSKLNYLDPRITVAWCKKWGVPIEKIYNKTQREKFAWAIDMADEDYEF

[10] = biological target: Polynucleotide kinase (Enterobacteria phage T4) (UniProt P06855); assay: Inhibition of T4 polynucleotide kinase at 100 uM; conditions: Tequatrovirus T4
Bos taurus [11] = organism: Bos taurus; assay: Inhibition of calf primase DNA polymerase alpha at 100 uM
Thermus aquaticus = assay: Inhibition of Taq DNA polymerase at 100 uM
Brassica oleracea [12] = assay: Inhibition of cauliflower DNA polymerase beta at 100 uM
[13] = biological target: T5, DNA polymerase eta (Homo sapiens) (UniProt Q9Y253); assay: Inhibition of human DNA polymerase eta at 100 uM
T5 sequence (whole entry): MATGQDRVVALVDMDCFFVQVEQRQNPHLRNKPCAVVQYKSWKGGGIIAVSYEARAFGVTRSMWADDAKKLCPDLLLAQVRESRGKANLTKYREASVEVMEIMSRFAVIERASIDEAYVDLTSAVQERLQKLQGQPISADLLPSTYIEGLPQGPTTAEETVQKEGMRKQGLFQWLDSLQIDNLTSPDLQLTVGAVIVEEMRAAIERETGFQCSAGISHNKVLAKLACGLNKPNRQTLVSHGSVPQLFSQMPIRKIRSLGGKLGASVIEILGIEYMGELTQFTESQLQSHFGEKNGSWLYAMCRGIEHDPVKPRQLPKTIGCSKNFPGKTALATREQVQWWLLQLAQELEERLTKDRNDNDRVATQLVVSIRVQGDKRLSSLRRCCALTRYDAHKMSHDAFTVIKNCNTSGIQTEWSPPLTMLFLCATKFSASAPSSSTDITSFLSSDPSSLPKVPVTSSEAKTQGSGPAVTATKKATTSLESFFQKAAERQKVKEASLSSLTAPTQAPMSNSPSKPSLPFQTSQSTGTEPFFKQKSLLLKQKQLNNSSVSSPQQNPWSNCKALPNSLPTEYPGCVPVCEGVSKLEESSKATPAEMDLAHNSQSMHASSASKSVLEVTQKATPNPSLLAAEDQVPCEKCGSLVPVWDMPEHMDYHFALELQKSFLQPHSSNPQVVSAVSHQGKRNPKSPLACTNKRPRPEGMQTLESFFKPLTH

DNA polymerase kappa = biological target: T6, DNA polymerase kappa (Homo sapiens, UniProt Q9UBT6); assay: Inhibition of human DNA polymerase kappa
T6 sequence (Q9UBT6 whole entry): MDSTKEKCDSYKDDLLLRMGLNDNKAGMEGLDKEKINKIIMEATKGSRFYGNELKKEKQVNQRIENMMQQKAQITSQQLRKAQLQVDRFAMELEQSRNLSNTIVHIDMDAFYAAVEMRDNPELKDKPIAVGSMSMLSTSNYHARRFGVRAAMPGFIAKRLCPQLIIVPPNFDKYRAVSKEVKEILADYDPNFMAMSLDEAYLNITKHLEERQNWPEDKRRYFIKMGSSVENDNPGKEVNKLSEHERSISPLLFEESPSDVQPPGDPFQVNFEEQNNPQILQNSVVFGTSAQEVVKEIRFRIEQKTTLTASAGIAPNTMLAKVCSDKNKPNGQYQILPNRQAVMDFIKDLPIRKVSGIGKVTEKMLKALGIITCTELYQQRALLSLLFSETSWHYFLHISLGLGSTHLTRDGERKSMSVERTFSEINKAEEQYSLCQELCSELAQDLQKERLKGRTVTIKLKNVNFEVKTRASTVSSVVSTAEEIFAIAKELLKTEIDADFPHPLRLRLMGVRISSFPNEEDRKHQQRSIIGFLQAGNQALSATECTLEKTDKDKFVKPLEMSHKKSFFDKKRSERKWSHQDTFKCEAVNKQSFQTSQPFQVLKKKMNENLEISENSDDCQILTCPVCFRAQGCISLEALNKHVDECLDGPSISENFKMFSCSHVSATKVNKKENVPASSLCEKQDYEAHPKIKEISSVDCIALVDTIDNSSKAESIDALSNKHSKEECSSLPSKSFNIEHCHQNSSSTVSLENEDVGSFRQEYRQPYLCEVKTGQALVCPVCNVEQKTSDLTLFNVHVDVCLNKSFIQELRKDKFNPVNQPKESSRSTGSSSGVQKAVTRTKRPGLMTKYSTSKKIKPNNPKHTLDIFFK

[14] = biological target: Human immunodeficiency virus type 1 reverse transcriptase (Human immunodeficiency virus 1) (UniProt Q72547); assay: Inhibition of human immunodeficiency virus 1 reverse transcriptase at 100 uM
Homo sapiens [15] = organism: Homo sapiens; assay: Inhibition of human DNA polymerase epsilon at 100 uM
Homo sapiens [16] = organism: Homo sapiens; assay: Inhibition of human DNA topoisomerase 2 at 100 uM
Escherichia phage T7 = assay: Inhibition of T7 RNA polymerase […] at 100 uM
Brassica oleracea [17] = assay: Inhibition of cauliflower DNA polymerase alpha at 100 uM
[18] = biological target: Deoxyribonuclease-1 (Bos taurus) (UniProt P00639); assay: Inhibition of bovine deoxyribonuclease 1 at 100 uM
Deoxyribonuclease-1 (Bos taurus), sequence (P00639 whole entry): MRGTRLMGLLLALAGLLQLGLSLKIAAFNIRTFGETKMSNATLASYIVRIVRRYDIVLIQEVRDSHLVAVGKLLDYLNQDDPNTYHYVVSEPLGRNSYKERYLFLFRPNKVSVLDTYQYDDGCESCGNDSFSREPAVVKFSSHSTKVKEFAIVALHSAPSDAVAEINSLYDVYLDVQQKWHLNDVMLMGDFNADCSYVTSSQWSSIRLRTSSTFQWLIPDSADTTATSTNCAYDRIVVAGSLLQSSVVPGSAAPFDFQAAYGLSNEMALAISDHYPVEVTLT

Inosine-5'-monophosphate dehydrogenase 2 (Mus musculus), sequence (P24547 whole entry, looked up): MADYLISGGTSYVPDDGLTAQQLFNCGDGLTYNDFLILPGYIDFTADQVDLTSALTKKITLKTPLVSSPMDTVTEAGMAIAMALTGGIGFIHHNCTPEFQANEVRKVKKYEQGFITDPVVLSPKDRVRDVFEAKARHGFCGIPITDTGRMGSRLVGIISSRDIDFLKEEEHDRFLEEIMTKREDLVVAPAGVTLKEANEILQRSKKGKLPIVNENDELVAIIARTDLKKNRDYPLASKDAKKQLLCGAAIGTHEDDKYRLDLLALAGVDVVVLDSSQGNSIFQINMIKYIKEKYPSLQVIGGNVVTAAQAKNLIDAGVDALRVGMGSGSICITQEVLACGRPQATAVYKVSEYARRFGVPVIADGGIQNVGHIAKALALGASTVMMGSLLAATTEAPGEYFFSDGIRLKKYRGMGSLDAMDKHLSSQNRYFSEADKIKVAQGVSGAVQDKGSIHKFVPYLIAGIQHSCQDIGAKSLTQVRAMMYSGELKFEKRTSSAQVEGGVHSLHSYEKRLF
Polynucleotide kinase (Enterobacteria phage T4), sequence (P06855 whole entry): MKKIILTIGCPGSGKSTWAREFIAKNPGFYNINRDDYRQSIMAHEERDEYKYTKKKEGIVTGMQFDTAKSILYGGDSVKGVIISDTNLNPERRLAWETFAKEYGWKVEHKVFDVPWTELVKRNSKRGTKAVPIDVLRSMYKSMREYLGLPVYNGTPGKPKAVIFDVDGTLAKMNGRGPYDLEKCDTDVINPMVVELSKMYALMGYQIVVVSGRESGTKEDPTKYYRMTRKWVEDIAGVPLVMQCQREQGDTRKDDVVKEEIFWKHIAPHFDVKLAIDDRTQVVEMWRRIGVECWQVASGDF
Telomerase reverse transcriptase (Homo sapiens), sequence (O14746 whole entry): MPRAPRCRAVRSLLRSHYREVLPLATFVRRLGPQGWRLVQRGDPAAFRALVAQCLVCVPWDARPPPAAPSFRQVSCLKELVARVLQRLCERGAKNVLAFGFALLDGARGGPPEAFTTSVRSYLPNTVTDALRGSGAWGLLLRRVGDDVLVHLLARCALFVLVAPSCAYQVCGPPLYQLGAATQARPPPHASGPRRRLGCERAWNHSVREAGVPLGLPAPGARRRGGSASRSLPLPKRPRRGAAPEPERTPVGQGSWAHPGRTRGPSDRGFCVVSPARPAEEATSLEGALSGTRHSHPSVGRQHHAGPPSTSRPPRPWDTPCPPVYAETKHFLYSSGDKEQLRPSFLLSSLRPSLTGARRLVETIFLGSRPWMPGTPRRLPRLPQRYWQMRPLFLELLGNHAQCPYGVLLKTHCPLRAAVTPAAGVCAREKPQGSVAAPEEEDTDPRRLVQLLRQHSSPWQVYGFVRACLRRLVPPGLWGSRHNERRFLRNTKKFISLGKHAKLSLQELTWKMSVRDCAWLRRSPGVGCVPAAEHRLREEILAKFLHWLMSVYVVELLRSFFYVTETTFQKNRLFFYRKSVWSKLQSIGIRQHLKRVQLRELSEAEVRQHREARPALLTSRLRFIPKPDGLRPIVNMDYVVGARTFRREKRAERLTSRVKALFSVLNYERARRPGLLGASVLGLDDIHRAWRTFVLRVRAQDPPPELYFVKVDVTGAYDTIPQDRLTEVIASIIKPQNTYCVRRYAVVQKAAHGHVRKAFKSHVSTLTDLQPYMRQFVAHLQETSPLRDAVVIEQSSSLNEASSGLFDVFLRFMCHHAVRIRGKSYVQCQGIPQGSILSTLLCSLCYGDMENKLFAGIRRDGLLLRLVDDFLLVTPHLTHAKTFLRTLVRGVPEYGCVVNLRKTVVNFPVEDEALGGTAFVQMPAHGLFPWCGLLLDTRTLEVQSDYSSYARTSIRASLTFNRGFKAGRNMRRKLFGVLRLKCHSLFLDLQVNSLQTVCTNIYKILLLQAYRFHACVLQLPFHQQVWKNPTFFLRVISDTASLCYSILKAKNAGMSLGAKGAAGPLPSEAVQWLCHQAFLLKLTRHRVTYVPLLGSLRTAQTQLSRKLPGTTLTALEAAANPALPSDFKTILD

| Activity (Bos taurus [1]) | IC50 (DNA polymerase beta) | Activity (Homo sapiens [2]) | Activity (Escherichia coli) | Activity [3] | Activity [4] | Activity (Bos taurus [5]) | Activity [6] | Activity (Tequatrovirus T4) | Activity [7] | Activity [8] | Activity [9] | Activity [10] | Activity (Bos taurus [11]) | Activity (Thermus aquaticus) | Activity (Brassica oleracea [12]) | Activity [13] | IC50 (DNA polymerase kappa) | Activity [14] | Activity (Homo sapiens [15]) | Structure (SMILES) | further results |
| --- | --- | --- | --- | --- | --- | --- | --- | --- | --- | --- | --- | --- | --- | --- | --- | --- | --- | --- | --- | --- | --- |
| Active | 11.9 µM | inactive | inactive | Active | Active | inactive | inactive | inactive | inactive | inactive | inactive | inactive | inactive | inactive | inactive | Active | 59.8 µM | inactive | inactive | COc1cc(O)c2c(=O)oc3c(c2c1)C(C)CC3=O (stereo not drawn) | Activity (Homo sapiens [16]): inactive; Activity (Escherichia phage T7): inactive; Activity (Brassica oleracea [17]): inactive; Activity [18]: inactive |
| Active | 16.3 µM | inactive | inactive | Active | Active | inactive | inactive | inactive | inactive | inactive | inactive | inactive | inactive | inactive | inactive | Active | 86.5 µM | inactive | inactive | COc1cc(O)c2c(c1)C1(OC2=O)C(C)=CC(=O)C1O (stereo not drawn) [TALAROFLAVONE] | Activity (Homo sapiens [16]): inactive; Activity (Escherichia phage T7): inactive; Activity (Brassica oleracea [17]): inactive; Activity [18]: inactive |
